According to PMC10046946, “Novel Phthalic-Based Anticancer Tyrosine Kinase Inhibitors: Design, Synthesis and Biological Activity” (Current Issues in Molecular Biology, 2023):

What was measured:
K562 cell line = experiment: ROS determination (DCFH-DA, flow cytometry); assay type: cell-based; conditions: 48 h
Protocol: The redox status was assessed using the K562 cell line. […] Then, the cells were washed to remove the 2′,7′-dichlorodihydrofluorescein diacetate by centrifugation at 1000 rpm for 5 min. The measurements were conducted using a Cytomics FC500 Beckman Coulter flow cytometer (FL1 channel for DCF).

[1] = system: HepG2 (human liver cancer); experiment: MTT cell proliferation assay, HepG2; assay type: cell-based; conditions: Homo sapiens, HepG2, 72 h, HepG2, 72 h of exposition, read-out: Anti-proliferative activity IC50, HepG2
Protocol: (§1) Tests to determine the effects of the synthesized compounds on cell viability and the half-maximal inhibitory concentration (IC50) were performed using the MTT assay, as described in our prior work.
(§2) The target compounds 5, 6, 8–12, 14, 15, 17–22 and 24–26 were tested for antiproliferative activity against six cancer cell lines: K562 (chronic myelogenous leukemia), HL-60 (promyelocytic leukemia), MCF-7 (breast adenocarcinoma), HepG2 (human liver cancer), A549 (lung carcinoma) and OKP-GS (renal cell carcinoma). The RPMI 1788 cells (B lymphocyte, human) were used as a control to evaluate the system toxicity of the studied compounds to normal cells. Sorafenib, nilotinib and lapatinib were utilized as reference standards for comparison.

[2] = system: RPMI 1788 cells (B lymphocyte, human); experiment: MTT cell proliferation assay, normal RPMI 1788 cells; assay type: cell-based; conditions: normal human lymphoblastoid cells RPMI 1788, 72 h of exposition, read-out: Anti-proliferative activity IC50, RPMI 1788
Protocol: as §1, §2

K562 cells [3] = experiment: Cell cycle analysis (propidium iodide, flow cytometry); assay type: cell-based; conditions: 48 h
Protocol: Tumor cells were seeded on a 6-well plate at a density of 400,000 per well for K562. Test compounds 5, 14 and 15 were added at concentrations of 1, 5 and 10 μM in duplicate for 48 h. The methodology and analysis of the obtained data were performed as described in our prior work.
As shown above, compounds 5, 14 and 15 had significant antiproliferative activities, which is why their influences on the cell cycle and apoptosis level were determined, with the aim of understanding whether these effects are cytostatic or cytotoxic. In the cell cycle experiments, K562 cells were used. […] For the determination of changes in the distribution of cells in the phases of the cell cycle, the widely employed method of staining the cells with propidium iodide was used.

[4] = system: HL-60 (promyelocytic leukemia); experiment: MTT cell proliferation assay, HL-60; assay type: cell-based; conditions: Homo sapiens, HL-60, 72 h of exposition, read-out: Anti-proliferative activity IC50, HL-60
Protocol: as §1, §2

K562 cells [5] = experiment: Annexin V-FITC/PI apoptosis assay; assay type: cell-based; conditions: 48 h
Protocol: K562 tumor cells were plated on a 6-well plate at a density of 400,000 per well. Test compounds 5, 14 and 15 were added at concentrations of 1, 5 and 10 μM in duplicate for 48 h. The methodology and analysis of the obtained data were performed as described in our prior work.
The effects of compounds 5, 14 and 15 on cell apoptosis were examined using the Annexin V-FITC Kit (Beckman Coulter, Brea, CA, USA) according to the protocols provided. The Annexin V-FITC Kit is an apoptosis detection kit based on the binding properties of annexin V to phosphatidylserine (PS) and on the DNA intercalating capability of propidium iodide (PI). K562 cells were treated with compound 5, 14 and 15 at 1, 5 and 10 μM for 48 h, after which annexin V/PI binding was measured by flow cytometry.

[6] = system: K562 (chronic myelogenous leukemia); experiment: MTT cell proliferation assay, K562; assay type: cell-based; conditions: Homo sapiens, K562, 72 h of exposition, read-out: Anti-proliferative activity IC50, K562
Protocol: as §1, §2

[7] = system: MCF-7 (breast adenocarcinoma); experiment: MTT cell proliferation assay, MCF-7; assay type: cell-based; conditions: Homo sapiens, MCF7, MCF-7, 72 h of exposition, read-out: Anti-proliferative activity IC50, MCF-7
Protocol: as §1, §2

A549 (lung carcinoma) = experiment: MTT cell proliferation assay, A549; assay type: cell-based; conditions: Homo sapiens, A549, 72 h of exposition, read-out: Anti-proliferative activity IC50, A549
Protocol: as §1, §2

[8] = system: OKP-GS (renal cell carcinoma); experiment: MTT cell proliferation assay, OKP-GS; assay type: cell-based; conditions: 72 h of exposition, read-out: Anti-proliferative activity IC50, OKP-GS
Protocol: as §1, §2

PDGFRα = biological target: T1, PDGFRα (Homo sapiens, UniProt P16234); experiment: ADP-Glo kinase assay, PDGFRα; assay type: biochemical
T1 construct: purchased Promega
T1 sequence (P16234 24-1089): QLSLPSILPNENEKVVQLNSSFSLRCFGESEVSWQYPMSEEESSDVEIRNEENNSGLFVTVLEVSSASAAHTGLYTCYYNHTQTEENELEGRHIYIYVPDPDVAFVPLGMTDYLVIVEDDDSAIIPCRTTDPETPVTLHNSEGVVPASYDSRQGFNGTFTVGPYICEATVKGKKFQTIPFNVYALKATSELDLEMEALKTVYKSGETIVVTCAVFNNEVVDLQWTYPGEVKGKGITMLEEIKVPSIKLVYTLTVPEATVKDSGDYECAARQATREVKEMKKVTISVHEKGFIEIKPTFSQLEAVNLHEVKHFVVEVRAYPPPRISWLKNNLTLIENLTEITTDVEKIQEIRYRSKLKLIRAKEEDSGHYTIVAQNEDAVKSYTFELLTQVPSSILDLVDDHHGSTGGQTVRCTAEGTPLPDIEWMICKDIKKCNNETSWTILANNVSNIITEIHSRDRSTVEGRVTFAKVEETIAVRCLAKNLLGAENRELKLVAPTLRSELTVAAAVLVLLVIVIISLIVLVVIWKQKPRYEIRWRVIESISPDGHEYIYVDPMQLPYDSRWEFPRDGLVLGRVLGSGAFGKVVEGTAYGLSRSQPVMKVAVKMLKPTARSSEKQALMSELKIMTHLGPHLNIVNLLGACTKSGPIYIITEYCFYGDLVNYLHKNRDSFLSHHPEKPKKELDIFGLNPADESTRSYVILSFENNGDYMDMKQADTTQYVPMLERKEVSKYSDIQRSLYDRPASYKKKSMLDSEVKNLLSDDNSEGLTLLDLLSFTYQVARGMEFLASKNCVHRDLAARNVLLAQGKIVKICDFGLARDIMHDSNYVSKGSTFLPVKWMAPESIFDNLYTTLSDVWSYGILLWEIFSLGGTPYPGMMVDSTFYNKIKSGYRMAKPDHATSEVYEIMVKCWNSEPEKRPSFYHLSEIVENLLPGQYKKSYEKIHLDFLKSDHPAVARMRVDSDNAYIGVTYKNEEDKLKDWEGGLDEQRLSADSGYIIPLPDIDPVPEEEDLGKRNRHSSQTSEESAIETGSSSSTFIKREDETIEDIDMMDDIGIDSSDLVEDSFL
Protocol: (§3) The ADP-Glo kinase assay (Promega, Madison, WI, USA) was used to screen compounds 5, 8–10, 14, 17, 19 and 24 for the tyrosine kinase (Kinase Selectivity Profiling System TK-1, Promega, Madison, WI, USA) and serine/threonine kinase (Kinase Selectivity Profiling System Other/CK-1, Promega, Madison, WI, USA) inhibition effects according to the manufacturer’s technical manual. The luminescence data were analyzed as described in our prior work.
(§4) The selectivity of the potential kinase inhibitor against a specific protein kinase or a specific family of kinases was investigated using the Kinase Selectivity Profiling System TK-1, Other/CK-1 and ADP-Glo™ Kinase assay kit (Promega, Madison, WI, USA).

PDGFRβ = biological target: T2, PDGFRβ (Homo sapiens, UniProt P09619); experiment: ADP-Glo kinase assay, PDGFRβ; assay type: biochemical
T2 construct: purchased Promega
T2 sequence (P09619 33-1106): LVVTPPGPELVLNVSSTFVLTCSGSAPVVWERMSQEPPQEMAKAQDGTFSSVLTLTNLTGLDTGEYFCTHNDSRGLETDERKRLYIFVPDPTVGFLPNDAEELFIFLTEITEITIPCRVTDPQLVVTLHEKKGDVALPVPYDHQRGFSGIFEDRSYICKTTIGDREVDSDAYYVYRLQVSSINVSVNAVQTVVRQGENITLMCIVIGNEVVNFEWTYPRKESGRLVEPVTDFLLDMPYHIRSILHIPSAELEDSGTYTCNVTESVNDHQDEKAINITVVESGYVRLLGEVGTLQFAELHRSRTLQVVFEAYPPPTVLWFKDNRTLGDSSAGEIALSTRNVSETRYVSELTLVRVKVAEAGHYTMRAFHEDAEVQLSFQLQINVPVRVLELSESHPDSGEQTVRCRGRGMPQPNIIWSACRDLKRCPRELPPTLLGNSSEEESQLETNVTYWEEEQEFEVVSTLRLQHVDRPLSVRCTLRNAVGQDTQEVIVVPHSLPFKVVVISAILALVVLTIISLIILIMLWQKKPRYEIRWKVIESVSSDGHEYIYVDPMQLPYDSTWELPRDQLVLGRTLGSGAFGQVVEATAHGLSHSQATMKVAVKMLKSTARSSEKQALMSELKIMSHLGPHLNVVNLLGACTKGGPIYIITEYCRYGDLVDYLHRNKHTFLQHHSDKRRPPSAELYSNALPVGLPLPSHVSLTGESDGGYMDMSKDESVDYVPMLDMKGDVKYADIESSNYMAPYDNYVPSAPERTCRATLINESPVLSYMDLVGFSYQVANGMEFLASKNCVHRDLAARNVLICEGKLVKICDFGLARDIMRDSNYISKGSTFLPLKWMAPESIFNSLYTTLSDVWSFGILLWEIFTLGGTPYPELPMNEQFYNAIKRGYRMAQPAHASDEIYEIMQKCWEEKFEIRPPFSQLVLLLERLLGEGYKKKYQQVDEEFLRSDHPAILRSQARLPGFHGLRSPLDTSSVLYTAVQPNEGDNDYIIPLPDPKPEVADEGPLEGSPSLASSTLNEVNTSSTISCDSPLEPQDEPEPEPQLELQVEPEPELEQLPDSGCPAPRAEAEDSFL
Protocol: as §3, §4

SMILES	melting point [°C]	IC50 [1] [µM]	IC50 [4] [µM]	IC50 [6] [µM]	IC50 [7] [µM]	IC50 (A549 (lung carcinoma)) [µM]	IC50 [8] [µM]	IC50 [2] [µM]	also measured
COc1ccc(C(=O)N2CCN(C(=O)c3cccc(C(=O)Nc4cccc(C(F)(F)F)c4)c3)CC2)cc1 [Compound 7, 3-(4-(4-Methoxybenzoyl)piperazine-1-carbonyl)-N-(3-(trifluoromethyl)phenyl)benzamide]	72 to 74	–	–	–	–	–	–	–	–
COc1ccc(C(=O)N2CCN(C(=O)c3cccc(C(=O)Nc4cc(-n5cnc(C)c5)cc(C(F)(F)F)c4)c3)CC2)cc1 [Compound 13, 3-(4-(4-Methoxybenzoyl)piperazine-1-carbonyl)-N-(3-(4-methyl-1H-imidazol-1-yl)-5-(trifluoromethyl)-phenyl)benzamide]	144 to 146	–	–	–	–	–	–	–	–
Cc1cn(-c2cc(NC(=O)c3cccc(C(=O)N4CCN(C(=O)c5cccc(F)c5)CC4)c3)cc(C(F)(F)F)c2)cn1 [Compound 15, 3-(4-(3-Fluorobenzoyl)piperazine-1-carbonyl)-N-(3-(4-methyl-1H-imidazol-1-yl)-5-(trifluoromethyl)phenyl)-benzamide]	130 to 135	45.8 ± 1.76	34.8 ± 4.7	10.5 ± 2.54	27.38 ± 0.26	> 50	> 50	29.4 ± 1.79	ROS Level, % of Control (K562 cell line; K562, 5 µM): 92.89 % of Control; ROS Level, % of Control (K562 cell line; K562, 10 µM): 87.87 % of Control; ROS Level, % of Control (K562 cell line; K562, 20 µM): 94.07 % of Control; Apoptosis, % (cell cycle analysis) (K562 cells [3]; K562, 1 µM): 17.90%; G1, % (K562 cells [3]; K562, 1 µM): 30.15%; G2/M, % (K562 cells [3]; K562, 1 µM): 48.54%; S, % (K562 cells [3]; K562, 1 µM): 21.31%; Apoptosis, % (cell cycle analysis) (K562 cells [3]; K562, 5 µM): 20.54%; G1, % (K562 cells [3]; K562, 5 µM): 34.76%; G2/M, % (K562 cells [3]; K562, 5 µM): 53.65%; S, % (K562 cells [3]; K562, 5 µM): 11.59%; Apoptosis, % (cell cycle analysis) (K562 cells [3]; K562, 10 µM): 32.72%; G1, % (K562 cells [3]; K562, 10 µM): 28.85%; G2/M, % (K562 cells [3]; K562, 10 µM): 62.99%; S, % (K562 cells [3]; K562, 10 µM): 8.16%; normal live cells (living cells) (K562 cells [5]; K562, 1 µM): 74.91%; normal live cells (living cells) (K562 cells [5]; K562, 5 µM): 68.41%; normal live cells (living cells) (K562 cells [5]; K562, 10 µM): 60.97%
CNC(=O)c1cc(Oc2ccc(NC(=O)c3ccc(C(=O)Nc4cccc(C(F)(F)F)c4)cc3)cc2)ccn1 [Compound 18, N1-(4-((2-(methylcarbamoyl)pyridin-4-yl)oxy)phenyl)-N4-(3-(trifluoromethyl)phenyl)terephthalamide]	–	45.9 ± 1.83	> 50	26.9	> 50	> 50	34.4 ± 2.52	46 ± 1.76	–
O=C(Nc1cccc(C(F)(F)F)c1)c1ccc(C(=O)N2CCN(C(=O)c3ccccc3F)CC2)cc1 [Compound 20, 4-(4-(2-Fluorobenzoyl)piperazine-1-carbonyl)-N-(3-(trifluoromethyl)phenyl)benzamide]	215 to 217	> 50	> 50	> 50	> 50	> 50	> 50	> 50	–
CNC(=O)c1cc(Oc2ccc(NC(=O)Nc3ccc(Cl)c(C(F)(F)F)c3)cc2)ccn1 [Sorafenib, reference compound]	–	5.01 ± 0.14	3.37 ± 0.42	2.44 ± 0.21	8.62 ± 2.24	12.5 ± 1.64	7.17 ± 0.5	3.48 ± 0.39	ROS Level, % of Control (K562 cell line; K562, 5 µM): 69.20 % of Control; ROS Level, % of Control (K562 cell line; K562, 10 µM): 79.03 % of Control; ROS Level, % of Control (K562 cell line; K562, 20 µM): 71.59 % of Control; Apoptosis, % (cell cycle analysis) (K562 cells [3]; K562, 1 µM): 22.60%; G1, % (K562 cells [3]; K562, 1 µM): 36.50%; S, % (K562 cells [3]; K562, 1 µM): 7.72%; Apoptosis, % (cell cycle analysis) (K562 cells [3]; K562, 5 µM): 44.20%; G1, % (K562 cells [3]; K562, 5 µM): 33.87%; S, % (K562 cells [3]; K562, 5 µM): 30.14%; normal live cells (living cells) (K562 cells [5]; K562, 1 µM): 84.11%; early apoptotic cells (K562 cells [5]; K562, 5 µM): 36.2%; late apoptotic cells (K562 cells [5]; K562, 5 µM): 19.57%; normal live cells (living cells) (K562 cells [5]; K562, 5 µM): 42.32%; necrotic cells (K562 cells [5]; K562, 10 µM): 5.73%; normal live cells (living cells) (K562 cells [5]; K562, 10 µM): 26.41%; inhibition at 10 µM (PDGFRα): 100%; inhibition at 10 µM (PDGFRβ): 100%

Further lines, with some results ahead:

melting point [°C]	IC50 [1] [µM]	IC50 [4] [µM]	IC50 [6] [µM]	IC50 [7] [µM]	IC50 (A549 (lung carcinoma)) [µM]	IC50 [8] [µM]	SMILES	IC50 [2] [µM]	also measured
–	> 50	> 50	> 50	> 50	> 50	> 50	O=C(Nc1cccc(C(F)(F)F)c1)c1ccc(C(=O)N2CCN(C(=O)c3cccc(F)c3)CC2)cc1 [Compound 21, 4-(4-(3-Fluorobenzoyl)piperazine-1-carbonyl)-N-(3-(trifluoromethyl)phenyl)benzamide]	> 50	–
295 to 296	> 50	> 50	> 50	> 50	> 50	> 50	Cc1cn(-c2cc(NC(=O)c3ccc(C(=O)Nc4cc(-n5cnc(C)c5)cc(C(F)(F)F)c4)cc3)cc(C(F)(F)F)c2)cn1 [Compound 22, N1,N4-bis(3-(4-methyl-1H-imidazol-1-yl)-5-(trifluoromethyl)phenyl)terephthalamide]	> 50	–
299 to 300	–	–	–	–	–	–	CNC(=O)c1cc(Oc2ccc(NC(=O)c3ccc(C(=O)Nc4cc(-n5cnc(C)c5)cc(C(F)(F)F)c4)cc3)cc2)ccn1 [Compound 23, N1-(3-(4-methyl-1H-imidazol-1-yl)-5-(trifluoromethyl)phenyl)-N4-(4-((2-(methylcarbamoyl)pyridin-4-yl)oxy)phenyl)terephthalamide]	–	–
212 to 214	–	–	–	–	–	–	COc1ccc(C(=O)N2CCN(C(=O)c3ccc(C(=O)Nc4cc(-n5cnc(C)c5)cc(C(F)(F)F)c4)cc3)CC2)cc1 [Compound 25, 4-(4-(4-methoxybenzoyl)piperazine-1-carbonyl)-N-(3-(4-methyl-1H-imidazol-1-yl)-5-(trifluoromethyl)-phenyl)benzamide]	–	–
142 to 145	44.3 ± 4.79	26.4 ± 1.73	18.5 ± 0.73	48.8 ± 1.17	> 50	> 50	Cc1cn(-c2cc(NC(=O)c3ccc(C(=O)N4CCN(C(=O)c5ccccc5F)CC4)cc3)cc(C(F)(F)F)c2)cn1 [Compound 26, 4-(4-(2-fluorobenzoyl)piperazine-1-carbonyl)-N-(3-(4-methyl-1H-imidazol-1-yl)-5-(trifluoromethyl)phenyl)-benzamide]	23.97 ± 0.03	–
110 to 113	38.6 ± 1.11	26 ± 4.15	22.2 ± 2.12	49.4 ± 0.67	> 50	> 50	Cc1cn(-c2cc(NC(=O)c3ccc(C(=O)N4CCN(C(=O)c5cccc(F)c5)CC4)cc3)cc(C(F)(F)F)c2)cn1 [Compound 27, 4-(4-(3-fluorobenzoyl)piperazine-1-carbonyl)-N-(3-(4-methyl-1H-imidazol-1-yl)-5-(trifluoromethyl)phenyl)-benzamide]	24.08 ± 0.07	–
